Source: patent US8048880B2, “Treatment of cardiovascular disease and dyslipidemia using secretory phospholipase A2 (SPLA2) inhibitors and SPLA2 inhibitor combination therapies” (Anthera Pharmaceuticals, Inc., priority 2007, dated 2011)

Tested on: human subjects with CVD, specifically stable CAD
Test: Serum lipid levels and LDL particle size in humans, A-002 once a day for eight weeks (Example 6)
Assay type: in vivo
Details: for % change vs. baseline (mean LDL particle size) / % change vs. baseline (mean [non-HDL cholesterol]) / % change vs. baseline (mean [total cholesterol]) / % change vs. baseline (median [ApoB]) / % change vs. baseline (median [TG]) / % change vs. baseline (median [oxidized LDL]) / % change vs. baseline (median [small LDL particle]) / Change in mean LDL particle size vs. baseline / Change in mean [non-HDL cholesterol] vs. baseline / Change in mean [total cholesterol] vs. baseline / Change in median [ApoB] vs. baseline / Change in median [TG] vs. baseline / Change in median [oxidized LDL] vs. baseline / Change in median [small LDL particle] vs. baseline / % change vs. baseline (mean [LDL]) / Change in mean [LDL] vs. baseline: week 8
[1] = ITT population, A-002 once a day
[2] = serum, ITT population, A-002 250 or 500 mg once a day
[3] = statin subpopulation with baseline serum LDL greater than 70 mg/dl, A-002 once a day
[4] = statin subpopulation, A-002 once a day

`CCc1c(C(=O)C(N)=O)c2c(OCC(=O)OC)cccc2n1Cc1ccccc1` [A-002, [[3-(2-Amino-1,2-dioxoethyl)-2-ethyl-1-(phenylmethyl)-1H-indol-4-yl]oxy]acetic acid methyl ester] was tested, and the “combined effect of A-002 and statins on LDL levels versus either compound alone” value (A-002 once a day, expected once additional non-statin controls are obtained) was “synergistic decrease in LDL levels”, the “% change vs. baseline (mean LDL particle size)” value [1] was “+0.6%” and the “% change vs. baseline (mean [non-HDL cholesterol])” value [1] was −9.9%. For the same molecule, the “% change vs. baseline (mean [total cholesterol])” value [1] was −7.3%, the “% change vs. baseline (median [ApoB])” value [1] was −11.9% and the “% change vs. baseline (median [TG])” value [1] was −9.8%. The “% change vs. baseline (median [oxidized LDL])” value [1] was −3.6%, the “% change vs. baseline (median [small LDL particle])” value [1] was −9.1% and the “Change in mean LDL particle size vs. baseline” value [1] was “+0.11 nm”. For the same molecule, the “Change in mean [non-HDL cholesterol] vs. baseline” value [1] was -10.5 mg/dL, the “Change in mean [total cholesterol] vs. baseline” value [1] was -11.5 mg/dL and the “Change in median [ApoB] vs. baseline” value [1] was -8.1 mg/dL. The “Change in median [TG] vs. baseline” value [1] was -13.0 mg/dL, the “Change in median [oxidized LDL] vs. baseline” value [1] was −1.4 U/L and the “Change in median [small LDL particle] vs. baseline” value [1] was -74.0 nmol/L. For the same molecule, the “% change vs. baseline (mean [LDL])” value [2] was −8.3%, the “Change in mean [LDL] vs. baseline” value [2] was -7.1 mg/dL and the “% change vs. baseline (mean LDL particle size)” value [3] was “+1.0%”. For the same molecule, the “% change vs. baseline (mean [LDL])” value [3] was −15.0%, the “% change vs. baseline (mean [non-HDL cholesterol])” value [3] was −13.7% and the “% change vs. baseline (mean [total cholesterol])” value [3] was −10.5%. The “% change vs. baseline (median [ApoB])” value [3] was −18.7%, the “% change vs. baseline (median [oxidized LDL])” value [3] was −5.6% and the “% change vs. baseline (median [small LDL particle])” value [3] was −12.3%. For the same molecule, the “Change in mean LDL particle size vs. baseline” value [3] was “+0.19 nm”, the “Change in mean [LDL] vs. baseline” value [3] was -13.9 mg/dL and the “Change in mean [non-HDL cholesterol] vs. baseline” value [3] was -16.7 mg/dL. The “Change in mean [total cholesterol] vs. baseline” value [3] was -18.0 mg/dL, the “Change in median [ApoB] vs. baseline” value [3] was -13.1 mg/dL and the “Change in median [oxidized LDL] vs. baseline” value [3] was −2.8 U/L. The “Change in median [small LDL particle] vs. baseline” value [3] was -115.0 nmol/L, the “% change vs. baseline (mean LDL particle size)” value [4] was “+0.5%” and the “% change vs. baseline (mean [LDL])” value [4] was −8.2%. The “% change vs. baseline (mean [non-HDL cholesterol])” value [4] was −9.9%, the “% change vs. baseline (mean [total cholesterol])” value [4] was −7.3% and the “% change vs. baseline (median [ApoB])” value [4] was −11.9%. For the same molecule, the “% change vs. baseline (median [TG])” value [4] was −10.9%, the “% change vs. baseline (median [oxidized LDL])” value [4] was −2.9% and the “% change vs. baseline (median [small LDL particle])” value [4] was −8.2%. The “Change in mean LDL particle size vs. baseline” value [4] was “+0.10 nm”, the “Change in mean [LDL] vs. baseline” value [4] was -6.7 mg/dL and the “Change in mean [non-HDL cholesterol] vs. baseline” value [4] was -10.1 mg/dL. For the same molecule, the “Change in mean [total cholesterol] vs. baseline” value [4] was -11.2 mg/dL, the “Change in median [ApoB] vs. baseline” value [4] was -7.9 mg/dL and the “Change in median [TG] vs. baseline” value [4] was -13.0 mg/dL. For the same molecule, the “Change in median [oxidized LDL] vs. baseline” value [4] was −1.1 U/L and the “Change in median [small LDL particle] vs. baseline” value [4] was -66.0 nmol/L.
